Laboratory results reported in ChEMBL document CHEMBL1201862, “PubChem BioAssay data set” (2004).
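Compound exposure: 48 hours, 5 concentrations, 96-well plates. GI50 marks 50% less growth.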 Activity calls are given as the source filed them. Cut-off read from the data, not from the text of the source: active = GI50 up to about 1.1 µM and inactive = higher.

What was measured:
Experiment in all cases: NCI anticancer screen, dose series, 48 h
ACHN = tested on: ACHN
UACC-62 = tested on: UACC-62
BT-549 = tested on: BT-549
CAKI-1 = tested on: CAKI-1
SK-MEL-2 = tested on: SK-MEL-2
U-251 = tested on: U-251
SF-295 = tested on: SF-295
MDA-MB-435 = tested on: MDA-MB-435
Hs-578T = tested on: Hs-578T
HCC 2998 = tested on: HCC 2998
MCF7 = tested on: MCF7
OVCAR-8 = tested on: OVCAR-8
HT-29 = tested on: HT-29
DU-145 = tested on: DU-145
UACC-257 = tested on: UACC-257
A549 = tested on: A549
K562 = tested on: K562
SK-OV-3 = tested on: SK-OV-3
RXF 393 = tested on: RXF 393

SMILES | GI50 (ACHN) | GI50 (UACC-62) | GI50 (BT-549) | GI50 (CAKI-1) | GI50 (SK-MEL-2) | GI50 (U-251) | GI50 (SF-295) | GI50 (MDA-MB-435) | GI50 (Hs-578T) | GI50 (HCC 2998) | GI50 (MCF7) | GI50 (OVCAR-8) | GI50 (HT-29) | GI50 (DU-145) | GI50 (UACC-257) | GI50 (A549) | GI50 (K562) | GI50 (SK-OV-3) | GI50 (RXF 393)
CN1C(=O)c2ccccc2NC(=O)C12O[C@@H]2c1ccccc1 (stereo partly specified) | > 100 µM (inactive) | > 100 µM (inactive) | > 100 µM (inactive) | 75.2 µM (inactive) | > 100 µM (inactive) | > 100 µM (inactive) | > 100 µM (inactive) | > 100 µM (inactive) | > 100 µM (inactive) | > 100 µM (inactive) | > 100 µM (inactive) | > 100 µM (inactive) | > 100 µM (inactive) | > 100 µM (inactive) | > 100 µM (inactive) | > 100 µM (inactive) | – | – | –
Cc1cc(=O)oc2c3c(ccc12)OC(c1ccc(Br)cc1)CC3=O (stereo unspecified) | 11.7 µM (inactive) | 7.98 µM (inactive) | 3.03 µM (inactive) | 12.4 µM (inactive) | 11.3 µM (inactive) | 5.9 µM (inactive) | 10.7 µM (inactive) | 4.69 µM (inactive) | 2.56 µM (inactive) | 14.6 µM (inactive) | 4.27 µM (inactive) | 5.86 µM (inactive) | 14.7 µM (inactive) | – | 13.1 µM (inactive) | 16.7 µM (inactive) | 2.83 µM (inactive) | 8.15 µM (inactive) | –
OCc1cn(Cc2ccccc2)c2ccccc12 | 28.1 µM (inactive) | 0.646 µM (active) | 6.59 µM (inactive) | < 0.0461 µM (active) | 2.56 µM (inactive) | 1.02 µM (active) | – | > 51.9 µM (inactive) | 12.9 µM (inactive) | – | 0.612 µM (active) | 13 µM (inactive) | 1.71 µM (inactive) | > 21.6 µM (inactive) | – | 9.02 µM (inactive) | 4.48 µM (inactive) | 11 µM (inactive) | < 0.0316 µM (active)
CN1CCN([C@H]2C[C@H]3[C@@H]4CC=C5C[C@@H](O)CC[C@]5(C)[C@H]4CC[C@]3(C)C2=O)CC1 | > 100 µM (inactive) | > 100 µM (inactive) | > 100 µM (inactive) | > 100 µM (inactive) | > 100 µM (inactive) | > 100 µM (inactive) | > 100 µM (inactive) | > 100 µM (inactive) | > 100 µM (inactive) | > 100 µM (inactive) | > 100 µM (inactive) | > 100 µM (inactive) | 42.2 µM (inactive) | – | > 100 µM (inactive) | > 100 µM (inactive) | 34.3 µM (inactive) | > 100 µM (inactive) | > 100 µM (inactive)
CC(C)CC(NC=O)C(=O)NC(Cc1ccccc1)NC(=O)CNC(=O)C(C)NC(=O)OC(C)(C)C (stereo unspecified) | > 100 µM (inactive) | > 100 µM (inactive) | > 100 µM (inactive) | > 100 µM (inactive) | – | > 100 µM (inactive) | > 100 µM (inactive) | > 100 µM (inactive) | > 100 µM (inactive) | – | > 100 µM (inactive) | > 100 µM (inactive) | > 100 µM (inactive) | > 100 µM (inactive) | – | > 100 µM (inactive) | > 100 µM (inactive) | > 100 µM (inactive) | > 100 µM (inactive)
COC(=O)[C@H](Cc1ccccc1)NC(=O)[C@H](Cc1ccccc1)NC(=O)[C@@H]1CCCN1C(=O)N[C@H]1C2C=CC(C2)C1C(=O)N1CCC[C@H]1C(=O)N[C@@H](C)C(=O)N[C@H](C(=O)OC)C(C)C (stereo partly specified) | > 100 µM (inactive) | 92 µM (inactive) | 40.9 µM (inactive) | > 100 µM (inactive) | – | 70.3 µM (inactive) | 30.8 µM (inactive) | > 100 µM (inactive) | 59.6 µM (inactive) | – | 56.9 µM (inactive) | > 100 µM (inactive) | > 100 µM (inactive) | > 100 µM (inactive) | > 100 µM (inactive) | > 100 µM (inactive) | 33.9 µM (inactive) | > 100 µM (inactive) | > 100 µM (inactive)
CC1COC(c2cn[nH]c2C(N)=O)C1O (stereo unspecified) | > 100 µM (inactive) | > 100 µM (inactive) | > 100 µM (inactive) | > 100 µM (inactive) | > 100 µM (inactive) | > 100 µM (inactive) | > 100 µM (inactive) | > 100 µM (inactive) | > 100 µM (inactive) | – | > 100 µM (inactive) | > 100 µM (inactive) | > 100 µM (inactive) | > 100 µM (inactive) | > 100 µM (inactive) | > 100 µM (inactive) | > 100 µM (inactive) | > 100 µM (inactive) | –
C=CCOC(=O)CC[C@H](NC(=O)[C@@H](CCC(F)(F)F)Cc1ccc(O)cc1)C(=O)OCC=C | 47.9 µM (inactive) | 34 µM (inactive) | > 100 µM (inactive) | > 100 µM (inactive) | – | – | > 100 µM (inactive) | 25.4 µM (inactive) | 36.7 µM (inactive) | – | 20.7 µM (inactive) | > 100 µM (inactive) | > 100 µM (inactive) | – | – | > 100 µM (inactive) | 41.5 µM (inactive) | > 100 µM (inactive) | > 100 µM (inactive)
